Experimental data taken from patent US20240384268A1, “Oligonucleotides” (Hudson Institute of Medical Research, priority 2021, published 2024).
In the oligonucleotide strings, read from the 5' end, every base follows the letter of its sugar. An asterisk marks phosphorothioate; unmarked linkages are phosphodiester. Other units and linkages are bracketed, terminal groups are in braces. A string of capitals states the bases alone. d = 2'-deoxy (DNA); m = 2'-O-methyl

Target: T1, TLR8 (Homo sapiens, UniProt Q9NR97)
T1 sequence (Q9NR97 27-1041): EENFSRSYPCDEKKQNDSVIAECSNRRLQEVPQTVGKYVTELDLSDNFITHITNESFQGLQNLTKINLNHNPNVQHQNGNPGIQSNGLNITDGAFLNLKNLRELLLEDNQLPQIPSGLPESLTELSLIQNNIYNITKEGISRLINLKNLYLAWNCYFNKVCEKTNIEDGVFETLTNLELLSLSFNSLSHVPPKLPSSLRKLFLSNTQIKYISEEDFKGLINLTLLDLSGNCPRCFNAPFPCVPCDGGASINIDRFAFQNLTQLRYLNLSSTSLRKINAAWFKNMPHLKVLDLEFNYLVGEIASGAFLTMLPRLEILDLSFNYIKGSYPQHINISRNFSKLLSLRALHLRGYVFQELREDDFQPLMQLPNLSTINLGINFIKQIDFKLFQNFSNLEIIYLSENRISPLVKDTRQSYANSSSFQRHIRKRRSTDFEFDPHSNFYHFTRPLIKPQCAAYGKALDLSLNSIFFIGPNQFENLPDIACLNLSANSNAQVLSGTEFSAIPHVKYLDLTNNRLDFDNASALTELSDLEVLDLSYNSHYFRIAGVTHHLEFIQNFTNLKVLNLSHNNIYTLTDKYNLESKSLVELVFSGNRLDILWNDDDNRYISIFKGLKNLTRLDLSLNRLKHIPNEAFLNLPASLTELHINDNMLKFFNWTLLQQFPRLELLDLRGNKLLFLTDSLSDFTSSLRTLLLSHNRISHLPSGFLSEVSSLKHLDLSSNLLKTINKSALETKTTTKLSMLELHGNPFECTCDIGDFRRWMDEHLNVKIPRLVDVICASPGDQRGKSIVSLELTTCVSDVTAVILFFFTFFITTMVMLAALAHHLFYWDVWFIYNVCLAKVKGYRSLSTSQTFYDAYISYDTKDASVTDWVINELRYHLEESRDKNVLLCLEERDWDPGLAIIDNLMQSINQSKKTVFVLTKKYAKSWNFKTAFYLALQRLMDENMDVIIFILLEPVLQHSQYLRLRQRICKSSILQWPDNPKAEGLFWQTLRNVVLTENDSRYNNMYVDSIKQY
Experiment: HEK-TLR8 NF-κB-luciferase reporter, R848 or Motolimod stimulation (potentiation or inhibition)
Assay type: cell-based
Set-up: expressed in transfected cells; host or cells: 293XLhTLR8 (HEK293)
Conditions: for TLR8 100 nM: MOE-modified ASO at 100 nM; for TLR8 100 nM / TLR8 500 nM: averaged NF-κB-Luciferase relative to R848 condition (fold increase); for TLR8 500 nM: MOE-modified ASO at 500 nM; for TLR8-500 nM: averaged NF-κB-Luciferase relative to R848: HEK-TLR8, 500 nM ASO, fold increase relative to R848 without ASO (Alharbi et al., 2020)

Row | Substance | TLR8 100 nM | TLR8 500 nM | TLR8-500 nM: averaged NF-κB-Luciferase relative to R848
1 | AGTCGTAGTTGCTTCCTAAC (antisense; 2'-MOE modified, pattern not given here) [MB21D1-1181 MOE] | 3.091 | 5.889 | 
2 | ATGCCATCCACTTGATAGGC (antisense; 2'-MOE modified, pattern not given here) [EGFR-2874 MOE] | 2.028 | 2.025 | 
3 | CGGAGGTCTTGGCTTCGTGG (antisense; 2'-MOE modified, pattern not given here) [MB21D1-525 MOE] | 2.197 | 3.257 | 
4 | CGGCATCCACCACGTCGTCC (antisense; 2'-MOE modified, pattern not given here) [EGFR-3267 MOE] | 1.249 | 0.903 | 
5 | GCCCATCCATGAGGTCCTGG (antisense; 2'-MOE modified, pattern not given here) [CTNN2B-2545 MOE] | 0.899 | 0.541 | 
6 | GCTGACAAAGATTCACTGGT (antisense; 2'-MOE modified, pattern not given here) [HPRT-1353 MOE] | 1.475 | 3.067 | 
7 | GGGTATCGAAAGAGTCTGGA (antisense; 2'-MOE modified, pattern not given here) [EGFR-3908 MOE] | 3.138 | 4.073 | 
8 | GGTTTTGGCTGGGATCAAGT (antisense; 2'-MOE modified, pattern not given here) [CAMSAP1-4697 MOE] | 5.496 | 6.332 | 
9 | GTCCAAGATCAGCAGTCTCA (antisense; 2'-MOE modified, pattern not given here) [CTNN2B-2341 MOE] | 3.021 | 3.364 | 
10 | TCCGGCCTCGGAAGCTCTCT (antisense; 2'-MOE modified, pattern not given here) [MB21D1-168 MOE] | 0.816 | 0.781 | 
11 | TGGCAGGCTCAGTGATGTCT (antisense; 2'-MOE modified, pattern not given here) [CTNN2B-1642 MOE] | 1.074 | 0.973 | 
12 | TGGGCTGGAATCCGAGTTAT (antisense; 2'-MOE modified, pattern not given here) [EGFR-4705 MOE] | 1.452 | 2.058 | 
13 | TGGGTTACGGCTCAGTATGG (antisense; 2'-MOE modified, pattern not given here) [CAMSAP1-4295 MOE] | 1.610 | 1.538 | 
14 | TTTGCACACTTCGTACCCAA (antisense; 2'-MOE modified, pattern not given here) [CAMSAP1-4916 MOE] | 1.877 | 2.199 | 
15 | mA*mA*mA*mA*mG*A*T*T*A*T*C*T*T*C*T*mU*mU*mU*mA*mA (AAAAGATTATCTTCTUUUAA; sugars from the 5' end m5 d10 m5, all phosphorothioate, methylation of C not given here) [[CDKN2B-AS1]2133] |  |  | 4.68 fold
16 | mA*mA*mA*mA*mU*A*A*G*G*G*G*A*A*T*A*mG*mG*mG*mG*mA (mA*mA*mA*mA*mU*dA*dA*dG*dG*dG*dG*dA*dA*dT*dA*mG*mG*mG*mG*mA; antisense) [[CDKN2B-AS1]79] |  |  | 0.71 fold
17 | mA*mA*mA*mG*mA*T*T*A*T*C*T*T*C*T*T*mU*mU*mA*mA*mU (mA*mA*mA*mG*mA*dT*dT*dA*dT*dC*dT*dT*dC*dT*dT*mU*mU*mA*mA*mU) [[CDKN2B-AS1]2132] |  |  | 5.04 fold

Row | Substance | TLR8 100 nM | TLR8 500 nM | TLR8-500 nM: averaged NF-κB-Luciferase relative to R848
18 | mA*mA*mA*mU*mG*T*C*C*T*G*G*C*C*C*T*mC*mA*mC*mU*mG (mA*mA*mA*mU*mG*dT*dC*dC*dT*dG*dG*dC*dC*dC*dT*mC*mA*mC*mU*mG) [[LINC-PINT]148.1] |  |  | 1.56 fold
19 | mA*mA*mG*mA*mU*T*A*T*C*T*T*C*T*T*T*mU*mA*mA*mU*mU (mA*mA*mG*mA*mU*dT*dA*dT*dC*dT*dT*dC*dT*dT*dT*mU*mA*mA*mU*mU) [[CDKN2B-AS1]2131] |  |  | 5.62 fold
20 | mA*mA*mG*mG*mU*G*G*C*C*A*C*A*G*G*C*mA*mA*mC*mG*mU (mA*mA*mG*mG*mU*dG*dG*dC*dC*dA*dC*dA*dG*dG*dC*mA*mA*mC*mG*mU; antisense) [[CDKN2B-AS1]2198] |  |  | 0.78 fold
21 | mA*mA*mU*mA*mU*C*T*G*C*T*G*C*C*C*A*mC*mC*mU*mU*mC (mA*mA*mU*mA*mU*dC*dT*dG*dC*dT*dG*dC*dC*dC*dA*mC*mC*mU*mU*mC; antisense) [[CDKN2B-AS1]832] |  |  | 4.45 fold
22 | mA*mA*mU*mU*mU*A*A*A*G*C*A*T*G*A*A*mU*mA*mU*mU*mA (mA*mA*mU*mU*mU*dA*dA*dA*dG*dC*dA*dT*dG*dA*dA*mU*mA*mU*mU*mA) [[CDKN2B-AS1]645] |  |  | 5.02 fold
23 | mA*mC*mC*mC*mU*T*C*T*C*T*C*T*G*G*T*mC*mC*mC*mA*mU (mA*mC*mC*mC*mU*dT*dC*dT*dC*dT*dC*dT*dG*dG*dT*mC*mC*mC*mA*mU; antisense) [[LINC-PINT]115] |  |  | 7.57 fold
24 | mA*mG*mA*mA*mA*G*A*A*G*C*A*A*A*G*A*mU*mU*mC*mA*mA (AGAAAGAAGCAAAGAUUCAA; sugars from the 5' end m5 d10 m5, all phosphorothioate, methylation of C not given here) [[CDKN2B-AS1]1519] |  |  | 2.78 fold
25 | mA*mG*mA*mU*mU*A*T*C*T*T*C*T*T*T*T*mA*mA*mU*mU*mU (AGAUUATCTTCTTTTAAUUU; sugars from the 5' end m5 d10 m5, all phosphorothioate, methylation of C not given here) [[CDKN2B-AS1]2130] |  |  | 6.26 fold
26 | mA*mG*mC*mC*mG*A*A*C*A*G*A*A*G*G*A*mG*mC*mG*mU*mC (AGCCGAACAGAAGGAGCGUC; sugars from the 5' end m5 d10 m5, all phosphorothioate, methylation of C not given here) [[LINC-PINT]587 KL] |  |  | 3.73 fold
27 | mA*mG*mG*mA*mU*T*A*A*A*A*C*A*G*A*T*mU*mA*mA*mU*mA (mA*mG*mG*mA*mU*dT*dA*dA*dA*dA*dC*dA*dG*dA*dT*mU*mA*mA*mU*mA) [[CDKN2B-AS1] 1775] |  |  | 2.63 fold
28 | mA*mG*mG*mC*mC*T*C*C*A*G*T*G*T*C*T*mU*mC*mU*mC*mC (mA*mG*mG*mC*mC*dT*dC*dC*dA*dG*dT*dG*dT*dC*dT*mU*mC*mU*mC*mC; antisense) [[CDKN2B-AS1]2218] |  |  | 4.66 fold
29 | mA*mU*mA*mU*mC*T*G*C*T*G*C*C*C*A*C*mC*mU*mU*mC*mU (AUAUCTGCTGCCCACCUUCU; antisense; sugars from the 5' end m5 d10 m5, all phosphorothioate, methylation of C not given here) [[CDKN2B-AS1]831] |  |  | 5.89 fold
30 | mA*mU*mG*mA*mC*A*T*T*T*C*G*T*G*G*C*mU*mC*mC*mU*mA (mA*mU*mG*mA*mC*dA*dT*dT*dT*dC*dG*dT*dG*dG*dC*mU*mC*mC*mU*mA) [[LINC-PINT]524.1] |  |  | 1.20 fold
31 | mC*mA*mA*mG*mC*C*C*C*A*G*C*G*T*T*C*mC*mU*mC*mC*mG (mC*mA*mA*mG*mC*dC*dC*dC*dA*dG*dC*dG*dT*dT*dC*mC*mU*mC*mC*mG; antisense) [[LINC-PINT]83.1] |  |  | 4.44 fold
32 | mC*mA*mC*mC*mC*T*T*C*T*C*T*C*T*G*G*mU*mC*mC*mC*mA (CACCCTTCTCTCTGGUCCCA; antisense; sugars from the 5' end m5 d10 m5, all phosphorothioate, methylation of C not given here) [[LINC-PINT]116] |  |  | 5.97 fold
33 | mC*mA*mC*mU*mG*T*A*T*T*T*T*A*T*T*A*mC*mA*mG*mA*mA (mC*mA*mC*mU*mG*dT*dA*dT*dT*dT*dT*dA*dT*dT*dA*mC*mA*mG*mA*mA; antisense) [[LINC-PINT]2990] |  |  | 4.86 fold
34 | mC*mA*mG*mG*mC*C*T*C*C*A*G*T*G*T*C*mU*mU*mC*mU*mC (mC*mA*mG*mG*mC*dC*dT*dC*dC*dA*dG*dT*dG*dT*dC*mU*mU*mC*mU*mC; antisense) [[CDKN2B-AS1]2219] |  |  | 3.89 fold
